EP4512427A1, “ANTIBODY-DRUG CONJUGATES BASED ON MOLECULAR GLUE DEGRADERS AND USES THEREOF” (Mablink Bioscience, priority 2023, dated 2025)

Columns and labels:
Assay in all cases: In vitro cytotoxicity assay (MTT)
[1] = system: MDA-MB-231; format: cell-based, human; settings: 6 days incubation
Method: (§1) In vitro cytotoxicity of compounds of the disclosure was assessed on several cancerous human cell lines. Cells were plated in 96-well plates at an appropriate density depending on the cell line (between 1000 and 10 000 cells/well in 100µL of appropriate culture media) and incubated at 37°C for 24 hours. Serial dilutions of the tested compound previously dissolved in culture media (50µL) were added, and incubation was carried at 37°C out for 6 days. MTT (5mg/mL in PBS, 20µL, Sigma-Aldrich) was added into the wells, and incubation was continued for 1 to 4 hours at 37°C. Culture media was then carefully removed, and well content was homogeneously dissolved with acidified isopropanol. Absorbance values were measured on a microplate reader using a wavelength of 570 nm (with a reference wavelength of 690 nm). The IC50 concentration values compared to untreated control cells were determined using inhibition dose response curve fitting (GraphPad Prism 9). Exatecan mesylate (cat#HY-13631A) and CR8 (CAS# 294646-77-8; cat#HY-18340) were purchased from MedChemExpress (China).

[2] = system: SKBR-3; format: cell-based, human; settings: 6 days incubation
Method: as §1

[3] = system: BT-474; format: cell-based, human; settings: BT-474, 6 days incubation, MTT
Method: as §1

[4] = system: NCI-N87; format: cell-based, human; settings: 6 days incubation
Method: as §1

[5] = system: MDA-MB-453; format: cell-based, human; settings: 6 days incubation
Method: as §1

[6] = system: JIMT-1; format: cell-based, human; settings: 6 days incubation
Method: as §1

[7] = system: MCF-7; format: cell-based; settings: Homo sapiens, MCF7, 144 h, 6 days incubation
Method: as §1

[8] = system: HT-29; format: cell-based; settings: Homo sapiens, 144 h, 6 days incubation
Method: as §1

[9] = system: BXPC3; format: cell-based; settings: Homo sapiens, BXPC-3, 144 h, 6 days incubation
Method: as §1

[10] = Homo sapiens, MDA-MB-231, 144 h
[11] = Homo sapiens, MDA-MB-453, 144 h

| Structure (SMILES) | IC50 [1, 10] | IC50 ([2]; Homo sapiens, SK-BR-3, 144 h) | IC50 ([3]; Homo sapiens, BT-474, 144 h) | IC50 ([4]; Homo sapiens, NCI-N87, 144 h) | IC50 [5, 11] | IC50 ([6]; Homo sapiens, 144 h) | IC50 [7] | IC50 [8] | IC50 [9] | IC50 [1] | IC50 [2] | IC50 [3] | IC50 [4] | IC50 [5] | IC50 [6] |
| --- | --- | --- | --- | --- | --- | --- | --- | --- | --- | --- | --- | --- | --- | --- | --- |
| Brc1cnn2c(NCc3ccc(-c4ccccn4)cc3)nc(NC3CCCNC3)nc12 (racemic) [Compound 2606] | 0.46 nM | 1.23 nM | 0.92 nM | 0.77 nM | 0.64 nM | 0.88 nM | 6.88 nM | 0.13 nM | 1.16 nM | – | – | – | – | – | – |
| N#Cc1cnn2c(NCc3ccc(-c4ccccn4)cc3)nc(N[C@H]3CC[C@H](N)CC3)nc12 [Compound 2478] | – | – | – | – | – | – | – | – | – | 1.64 nM | 17.6 nM | 1.72 nM | 6.88 nM | 1.34 nM | 1.18 nM |
| N[C@H]1CC[C@H](Nc2nc(Nc3ccc(CN4CCOCC4)cc3)n3ncc(Br)c3n2)CC1 [Compound 2533] | > 100 nM | > 100 nM | > 100 nM | > 100 nM | > 100 nM | > 100 nM | – | – | – | – | – | – | – | – | – |
| O[C@H]1CN[C@H](CNc2nc(NCc3ccc(-c4ccccn4)cc3)n3ncc(Br)c3n2)C1 [Compound 2538] | 8.75 nM | 39.1 nM | 6.54 nM | 21.6 nM | 8.12 nM | 5.13 nM | – | – | – | – | – | – | – | – | – |
| Brc1cnn2c(Nc3ccc(CN4CCOCC4)cc3)nc(NC3CCNCC3)nc12 [Compound 2554] | – | – | – | – | – | – | – | – | – | > 100 nM | > 100 nM | > 100 nM | > 100 nM | > 100 nM | > 100 nM |
| NC1CCN(c2nc(NCc3ccc(-c4ccccn4)cc3)n3ncc(Br)c3n2)CC1 [Compound 2559] | 1.35 nM | 3.73 nM | 2.63 nM | 1.32 nM | 1.52 nM | 0.41 nM | 12.8 nM | 0.21 nM | 1.63 nM | – | – | – | – | – | – |
| Brc1cnn2c(NCc3ccc(-c4ccccn4)cc3)nc(NCC3CCNCC3)nc12 [Compound 2569] | 11.2 nM | 62.6 nM | 15.2 nM | 19.7 nM | 12.8 nM | 6.7 nM | – | – | – | – | – | – | – | – | – |
| Nc1ccc(Nc2nc(NCc3ccc(-c4ccccn4)cc3)n3ncc(Br)c3n2)cc1 [Compound 2584] | 7.17 nM | 25.9 nM | 9.72 nM | 9.44 nM | 12.3 nM | 7.61 nM | – | – | – | – | – | – | – | – | – |
| CNCCNc1nc(NCc2ccc(-c3ccccn3)cc2)n2ncc(Br)c2n1 [Compound 2586] | 1.44 nM | 6.59 nM | 1.73 nM | 3.14 nM | 2.47 nM | 1.13 nM | 33.9 nM | 0.45 nM | 2.44 nM | – | – | – | – | – | – |
| N[C@H]1CC[C@H](Nc2nc(NCc3ccc(-c4ccccn4)cc3)n3ncc(I)c3n2)CC1 [Compound 2590] | 0.74 nM | 2.55 nM | 1.33 nM | 2.42 nM | 1.76 nM | 0.29 nM | – | – | – | – | – | – | – | – | – |
| Brc1cnn2c(NCc3ccc(-c4ccccn4)cc3)nc(N3CCNCC3)nc12 [Compound 2601] | 0.86 nM | 3.61 nM | 1.86 nM | 2.7 nM | 1.92 nM | 0.45 nM | 15.4 nM | 0.13 nM | 1.72 nM | – | – | – | – | – | – |
